Assays:
[1] = test system: isolated adult rat hearts; test: Ischemia-Reperfusion Assay 2 (Langendorff apparatus)
Method: Male Sprague-Dawley rats (300-350 g body weight) were anesthetized with Inactin (100 mg/kg IP) 20 minutes prior to surgery. The chest wall was opened and the heart was rapidly excised and immediately placed into ice-cold Krebs-Henseleit (KH) buffer (118 mM NaCl, 4.7 mM KCl, 1.2 mM MgSO4, 1.2 mM KH2PO4, 1.5 mM CaCl2, 25 mM NaHCO3, 11 mM glucose […], and 0.005 mM EDTA) to produce cardiac arrest. The aorta was then cannulated and the heart retrogradely perfused with KH buffer maintained at 37° C. in a reservoir bubbled with 95% O2/5% CO2 (pH7.4) on the Langendorff apparatus at a constant pressure of 70 mmHg. Myocardial temperature was maintained at 37° C. by partially submerging the heart into a water-jacketed chamber filled with KH buffer. A water filled latex balloon attached to a metal cannula and inserted into the left ventricle via the mitral valve and connected to a pressure transducer (Powerlab, ADInstruments, Inc) was used for measurement of left ventricular pressure. The balloon was initially inflated to an end-diastolic pressure of 10 mmHg. After allowing 20 minutes for equilibration, rat hearts were subjected to 10 minutes of KH buffer containing drug or vehicle followed by 30 minutes of ischemia followed by 30 minutes of reperfusion. The difference between peak-systolic and end diastolic pressures, or left ventricular developed pressure (LVDP) was calculated as an index of contractile function and measured just prior to ischemia and at 10, 20 and 30 minutes of reperfusion. Percent recovery of LV function [(LVDP post reperfusion/LVDP pre-ischemia)[…]] was averaged across 5 vehicle and 4 drug treated hearts and one-way anova with Newman-Keuls Multiple Comparison Test was used to determine statistical significance.
Epicardial electrogram recordings were also taken from the isolated rat hearts used in FIGS. 3 and 4. Briefly, silver wire electrodes were placed on the right atrium and the apex of the left ventricle, allowing an epicardial electrogram to be recorded. […]

[2] = biological target: T1, human Mas receptor (Homo sapiens, UniProt P04201); test: Mas receptor IP3 assay (inverse agonist assay); type: cell-based
T1 construct: expressed in transfected cells
T1 sequence (P04201 1-325): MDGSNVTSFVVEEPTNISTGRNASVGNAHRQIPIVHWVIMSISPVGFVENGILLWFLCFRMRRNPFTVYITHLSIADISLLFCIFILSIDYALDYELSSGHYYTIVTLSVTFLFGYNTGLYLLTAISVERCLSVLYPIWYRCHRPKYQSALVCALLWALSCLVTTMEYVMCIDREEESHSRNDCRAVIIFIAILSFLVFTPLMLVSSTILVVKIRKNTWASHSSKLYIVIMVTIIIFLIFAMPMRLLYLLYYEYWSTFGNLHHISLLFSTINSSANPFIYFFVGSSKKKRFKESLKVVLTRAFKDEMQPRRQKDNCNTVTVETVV
Method: The Mas receptor IP3 assay was performed using a mammalian cell line (HEK293) which was transfected with a plasmid containing the human Mas receptor and selected for stable expression of the receptor. For the inverse agonist assay, higher levels of Mas receptor constitutive activity were desired. To achieve this, Mas receptor expression levels were increased by transiently transfecting the same Mas receptor stable cell line with additional human Mas receptor plasmid DNA following standard procedures. These cells were used in the Mas receptor IP3 assay approximately 24 hours post-transfection.
Cells were split into 96-well plates (50,000 cells/well) and allowed to attach for a period of 6 hours. The growth medium was then replaced with medium supplemented with 4 μCi/ml [^3H]myo-inositol (100 μl; Perkin Elmer Life Sciences) and the cells were allowed to incubate for approximately 20 hours. Test compounds were serially diluted in inositol-free media containing 10 mM LiCl. The media in the plates was removed by aspiration, replaced with these test compound solutions and incubated at 37° C. for 1 hour. Following this incubation, the media was removed by aspiration and replaced with buffer containing 0.1M formic acid. The plates were then frozen overnight at −80° C. to achieve complete cell lysis.
The following day, the assay plates were thawed at room temperature. The thawed contents were then transfered to 96-well filter plates (Millipore, Multiscreen) pre-loaded with resin (Biorad, AG1-X8 100-200 mesh, formate form). The plate was filtered using a vacuum manifold and the resin was washed multiple times with water. An elution buffer was then applied (200 μl, 0.2M Ammonium formate/0.1M formic acid) and the resulting eluent was collected, under vacuum, in a 96-well collection plate. Aliquots of the eluent (80 μl) were transferred to filter plates (Whatman, Unifilter GF/C) and dried in a 45° C. oven overnight. Dried plates were counted on a scintillation counter following the addition of an appropriate scintillant (Perkin Elmer Life Sciences, Optiphase Supermix or Hi-Safe 3).

C=CCN1CCC2(CC1)CN(C(=O)c1cccc(F)c1F)c1ccc(F)cc12 [Compound 75, 1′-(allyl)-1,2-dihydro-5-fluoro-1-(2,3-difluoro-benzoyl)-spiro[3H-indole-3,4′-piperidine]]
left ventricle function after reperfusion ([1]; 30 μM, 30 min ischemia, 30 min reperfusion, compared to vehicle, FIG. 3): significant increase in left ventricle function after reperfusion
end diastolic pressure (EDP), ischemic contracture ([1]; 30 μM, compared to vehicle, FIG. 4): significant decrease in end diastolic pressure
early reperfusion arrhythmias (hearts positive) ([1]; epicardial electrogram, first 5 minutes of reperfusion, FIG. 5): none of the four hearts
IC50 ([2]; HEK293 cells over-expressing human Mas receptor, average from several experiments): 298 nM
IC50 ([2]; representative experiment, FIG. 1): 225 nM

Reference: patent US20070254903A1, “Novel Spiroindoline or Spiroisoquinoline Compounds, Methods of Use and Compositions Thereof” (ARENA PHARMACEUTICALS, INC., priority 2003, published 2007)
